Values quoted from earlier work as cited in PubChem BioAssay AID1259409 (Chemical Carcinogenesis Research Information System (CCRIS), 2018).

Test system: rodent chemically induced tumor inhibition, incidence and multiplicity
Assay: CCRIS tumor inhibitor studies
Conditions: Dose [Inhibitor]: 0

## CCOC(=O)/C=C\C(=O)OCC
Carcinogen: BUTYLATED HYDROXYANISOLE, 25013-16-5, 0.2% IN DIET SIMULTANEOUSLY WITH CARCINOGEN FOR 104 WK (STUDY DURATION: 104 WK), Route [Inhibitor]: ORAL, Species: RAT, Strain/Sex: F344/MALE, Target Tissue: Type of Lesion: FORESTOMACH: PAPILLOMA, Dose [Carcinogen]: 2% IN DIET FOR 104 WK, Promoter: NONE USED
  tumour outcome (control, treated, inhibition, significance): 88%, 27%, 69%, p<0.01
Carcinogen: BUTYLATED HYDROXYANISOLE, 25013-16-5, 0.2% IN DIET SIMULTANEOUSLY WITH CARCINOGEN FOR 104 WK (STUDY DURATION: 104 WK), Route [Inhibitor]: ORAL, Species: RAT, Strain/Sex: F344/MALE, Target Tissue: Type of Lesion: FORESTOMACH: SQUAMOUS CELL CARCINOMA, Dose [Carcinogen]: 2% IN DIET FOR 104 WK, Promoter: NONE USED
  tumour outcome (control, treated, inhibition, significance): 20%, 5%, 75%, not calculated
Carcinogen: N-BUTYL-N-(4-HYDROXYBUTYL)NITROSAMINE, 3817-11-6, 0.15% IN DRINKING WATER FOR 31 WK BEGINNING POST CARCINOGEN DOSE (STUDY DURATION: 36 WK), Route [Inhibitor]: ORAL, Species: RAT, Strain/Sex: F344/MALE, Target Tissue: Type of Lesion: URINARY BLADDER: CARCINOMA, Dose [Carcinogen]: 0.05% IN DRINKING WATER FOR 4 WK, Promoter: BUTYLATED HYDROXYANISOLE, 25013-16-5
  tumour outcome (control, treated, inhibition, significance): 5/15 (33%), 2/15 (13%), 61%, not significant
Carcinogen: N-BUTYL-N-(4-HYDROXYBUTYL)NITROSAMINE, 3817-11-6, 0.15% IN DRINKING WATER FOR 31 WK BEGINNING POST CARCINOGEN DOSE (STUDY DURATION: 36 WK), Route [Inhibitor]: ORAL, Species: RAT, Strain/Sex: F344/MALE, Target Tissue: Type of Lesion: URINARY BLADDER: PAPILLOMA, Dose [Carcinogen]: 0.05% IN DRINKING WATER FOR 4 WK, Promoter: BUTYLATED HYDROXYANISOLE, 25013-16-5
  tumour outcome (control, treated, inhibition, significance): 8/15 (53%), 10/15 (67%), -26%, not significant
Carcinogen: N-BUTYL-N-(4-HYDROXYBUTYL)NITROSAMINE, 3817-11-6, 0.15% IN DRINKING WATER FOR 31 WK BEGINNING POST CARCINOGEN DOSE (STUDY DURATION: 36 WK), Route [Inhibitor]: ORAL, Species: RAT, Strain/Sex: F344/MALE, Target Tissue: Type of Lesion: URINARY BLADDER: PAPILLOMA, Dose [Carcinogen]: 0.05% IN DRINKING WATER FOR 4 WK, Promoter: SODIUM BICARBONATE, 144-55-8
  tumour outcome (control, treated, inhibition, significance): 9/15 (60%), 9/15 (60%), 0%, not significant
Carcinogen: N-METHYL-N'-NITRO-N-NITROSOGUANIDINE, 70-25-7, 0.2% IN DIET BEGINNING 1 WK POST CARCINOGEN DOSE AND CONTINUING FOR 51 WK (STUDY DURATION: 52 WK), Route [Inhibitor]: ORAL, Species: RAT, Strain/Sex: F344/MALE, Target Tissue: Type of Lesion: FORESTOMACH: CARCINOMA, Dose [Carcinogen]: 150 MG/KG ONCE, Promoter: BUTYLATED HYDROXYANISOLE, 25013-16-5
  tumour outcome (control, treated, inhibition, significance): 5/14 (36%), 0/14 (0%), 100%, p<0.05
Carcinogen: N-METHYL-N'-NITRO-N-NITROSOGUANIDINE, 70-25-7, 0.2% IN DIET BEGINNING 1 WK POST CARCINOGEN DOSE AND CONTINUING FOR 51 WK (STUDY DURATION: 52 WK), Route [Inhibitor]: ORAL, Species: RAT, Strain/Sex: F344/MALE, Target Tissue: Type of Lesion: FORESTOMACH: PAPILLOMA, Dose [Carcinogen]: 150 MG/KG ONCE, Promoter: BUTYLATED HYDROXYANISOLE, 25013-16-5
  tumour outcome (control, treated, inhibition, significance): 14/14 (100%), 11/14 (79%), 21%, not calculated
Carcinogen: N-METHYL-N'-NITRO-N-NITROSOGUANIDINE, 70-25-7, 0.2% IN DIET BEGINNING 1 WK POST CARCINOGEN DOSE AND CONTINUING FOR 51 WK (STUDY DURATION: 52 WK), Route [Inhibitor]: ORAL, Species: RAT, Strain/Sex: F344/MALE, Target Tissue: Type of Lesion: FORESTOMACH: SARCOMA, Dose [Carcinogen]: 150 MG/KG ONCE, Promoter: BUTYLATED HYDROXYANISOLE, 25013-16-5
  tumour outcome (control, treated, inhibition, significance): 1/14 (7%), 4/14 (29%), -314%, not calculated
Carcinogen: N-METHYL-N'-NITRO-N-NITROSOGUANIDINE, 70-25-7, 0.2% IN DIET BEGINNING 1 WK POST CARCINOGEN DOSE AND CONTINUING FOR 51 WK (STUDY DURATION: 52 WK), Route [Inhibitor]: ORAL, Species: RAT, Strain/Sex: F344/MALE, Target Tissue: Type of Lesion: FORESTOMACH: SQUAMOUS CELL CARCINOMA, Dose [Carcinogen]: 150 MG/KG ONCE, Promoter: BUTYLATED HYDROXYANISOLE, 25013-16-5
  tumour outcome (control, treated, inhibition, significance): 14/14 (100%), 5/14 (36%), 64%, p<0.001

## COc1ccc2cc1Oc1ccc(cc1)C[C@H]1c3cc(c(OC)cc3CCN1C)Oc1c(OC)c(OC)cc3c1[C@@H](C2)N(C)CC3
Carcinogen: 7,12-DIMETHYLBENZ[A]ANTHRACENE, 57-97-6, 2 UMOL 2/WK 30 MIN PRIOR TO EACH PROMOTER DOSE BEGINNING 1 WK POST CARCINOGEN DOSE (STUDY DURATION: 18 WK), Route [Inhibitor]: DERMAL, Species: MOUSE, Strain/Sex: ICR/FEMALE, Target Tissue: Type of Lesion: SKIN: PAPILLOMA, Dose [Carcinogen]: 50 UG ONCE, Promoter: 12-O-TETRADECANOYLPHORBOL-13-ACETATE, 16561-29-8
  tumour outcome (control, treated, inhibition, significance): 100%, 27%, 73%, not calculated

## CC1=C(/C=C/C(C)=C/C=C/C(C)=C/CO)C(C)(C)CCC1
Carcinogen: BENZO[A]PYRENE, 50-32-8, 4000 IU/KG DIET BEGINNING 170 D PRIOR TO CARCINOGEN AND CONTINUING FOR STUDY DURATION (STUDY DURATION: 512 D), Route [Inhibitor]: ORAL, Species: HAMSTER, Strain/Sex: SYRIAN/MALE, Target Tissue: Type of Lesion: RESPIRATORY TRACT: TUMOR, Dose [Carcinogen]: 10 MG IN SALINE PLUS 8 MG FERRIC OXIDE 1/2 WK FOR 10 WK, Promoter: NONE USED
  tumour outcome (control, treated, inhibition, significance): 44%, 36%, 18%, not significant
Carcinogen: BENZO[A]PYRENE, 50-32-8, 100000 IU/KG DIET BEGINNING 170 D PRIOR TO CARCINOGEN AND CONTINUING FOR STUDY DURATION (STUDY DURATION: 512 D), Route [Inhibitor]: ORAL, Species: HAMSTER, Strain/Sex: SYRIAN/MALE, Target Tissue: Type of Lesion: RESPIRATORY TRACT: TUMOR, Dose [Carcinogen]: 10 MG IN SALINE PLUS 8 MG FERRIC OXIDE 1/2 WK FOR 10 WK, Promoter: NONE USED
  tumour outcome (control, treated, inhibition, significance): 44%, 35%, 20%, not significant
